PubChem BioAssay AID493085 (Broad Institute, 2011)
Results filed as inconclusive are left out. The source made the active and inactive calls.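 How the source made its calls: active means falling-signal curve with half-maximal concentration at or below ten times the top tested dose; inconclusive means flat fit at 30 to 70% inhibition, or poor fit; inactive means signal rise, flat within 30%, or potency beyond limit.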

Tested on: NIH3T3 R4 HSE-GFP/Tet-RFP reporter, fluorescence, 48 h
Assay: Tet-On RFP internal-standard readout, HSF1 screen, dose response, cell-based, NIH3T3 R4, HSE-GFP and Tet-On RFP, cherry-pick, set 3 (AID 493085);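 further: cells heat shocked 2 h at 42 °C with doxycycline to induce reporters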

SMILES | AC50
CC1(C)CC(NC(=O)COc2ccccc2Cl)CC(C)(C)N1 | > 19.5 µM (inactive)
O=C1C(Cl)=C(Nc2ccc3cn[nH]c3c2)C(=O)c2ccccc21 | 5.26 µM
CC(C)(C)c1ccc2c(c1)OC(C(=O)N/N=C\c1ccc[nH]1)CO2 (configuration not stated) | 0.182 µM
COCC1CCCCN1C(=O)c1cc(COc2ccc3ncccc3c2)on1 (configuration not stated) | 0.448 µM
CCOc1ccc(NCC(=O)c2ccc(C)cc2)cc1 | 12.7 µM
O=c1c2ccc(Cl)cc2nc(-c2cccc(C(F)(F)F)c2)n1O | 18.2 µM
CN1C(C(=O)Nc2ccc(OC(F)(F)F)cc2)=CC(c2cccs2)=NS1(=O)=O | 17.7 µM
CCN(CC)S(=O)(=O)c1ccc2c(c1)c(=O)c(C(=O)NCc1ccco1)cn2C | > 19.5 µM (inactive)
CC1(C)C[C@H]2C=C(C=O)[C@]3(C=O)C[C@]3(C)[C@H]2C1 | 17.9 µM
CCCCN(C(=O)COc1ccc(C)cc1OC)c1c(N)n(CCC)c(=O)[nH]c1=O | > 19.5 µM (inactive)
CCn1c(SCC(=O)Nc2oc(C)c3c(C)n[nH]c(=O)c23)nc2sc(C)c(C)c2c1=O | > 19.5 µM (inactive)
COc1ccc(C)cc1NS(=O)(=O)c1ccc(-c2cnc(C3CC3)o2)cc1 | 2.11 µM
O=[N+]([O-])c1ccc(S(=O)(=O)c2ccccc2)nc1 | 19.3 µM
Cc1ccc(-n2ncc(Br)c(Br)c2=O)cc1 | 18.3 µM
COc1cccc(-c2nnc3n2N=C(C(C)(C)C)CS3)c1 | 0.484 µM
CC(Nc1ncnc2sccc12)c1ccccc1 (configuration not stated) | 0.349 µM
COc1ccc(C[C@H]2NC[C@H](O)[C@H]2OC(C)=O)cc1 | 0.171 µM
CCOCCn1c(SCC(=O)OCc2ccccc2)nc2c1c(=O)[nH]c(=O)n2C | > 19.5 µM (inactive)
CS(=O)(=O)c1nc(-c2ccccc2)cc(C(F)(F)F)n1 | 1.81 µM
O=C1C(Nc2ccccc2)=C/C(=N/S(=O)(=O)c2cccs2)c2ccccc21 | 9.58 µM
CCNC(=S)N(C)CCc1cc2c(c(OC)c1C=C1C(=O)N(C)C(=O)N(C)C1=O)OCO2 | > 19.5 µM (inactive)
Fc1ccc(-n2cc(-c3ccccc3)c3c(N4CCOCC4)ncnc32)cc1 | 6.34 µM
CCOC(=O)/C(=C\c1ccc([N+](=O)[O-])cc1)C(=O)c1cc(C(C)=O)c(Nc2ccccc2)s1 | 6.97 µM
CCSc1nnc(NC(=O)C(Cc2ccccc2)n2cccc2)s1 (configuration not stated) | > 19.5 µM (inactive)

SMILES | AC50
O=C(C#Cc1ccccc1)c1ccco1 | 4.11 µM
CCOc1cc(C(=O)NCc2ccccc2)ccc1OCC(=O)N1CCOCC1 | > 19.5 µM (inactive)
CCOc1cc(C(=S)N2CCOCC2)ccc1OS(=O)(=O)c1ccc(OC)cc1 | 16.1 µM
CCCS(=O)(=O)N1CCc2cc(OC)c(OC)cc2C1 | > 10 µM (inactive)
Cc1oc2c(c1C(=O)NCc1cccnc1)C(=O)c1ccccc1C2=O | 0.891 µM
Cc1nc2c(-c3ccccc3)c(C)[nH]n2c(=O)c1Cl | > 19.5 µM (inactive)
CN=C1S/C(=C\c2cc(C)n(-c3ccccc3F)c2C)C(=O)N1C | 16.5 µM
Cc1cc(Nc2ccc3c(c2)OCCO3)c2cc(Cl)ccc2n1 | > 19.5 µM (inactive)
Cc1nn(-c2ccccc2)c(Cl)c1C(=O)N1CCN(c2ncnc3c2cnn3-c2ccccc2)CC1 | 6.77 µM
CCOC(=O)c1c(N)sc2c(O)c(Br)ccc12 | > 19.5 µM (inactive)
Cc1nn(C(C)(C)C)c(C)c1/C=N/OC(=O)Nc1ccc(Cl)c(Cl)c1 | > 19.5 µM (inactive)
O=[N+]([O-])c1cnc(Sc2ccncn2)s1 | 13.1 µM
O=C(Nc1ccccc1N1CCCCC1)C1CCN(C(=O)c2ccc(Cl)cc2)CC1 | > 19.5 µM (inactive)
Cc1ccc(NC2=C/C(=N\S(=O)(=O)c3cccs3)c3ccccc3C2=O)c(C)c1 | 1.51 µM
Cc1cc(C)c(S(=O)(=O)/N=C2\C=C(Nc3ccc(C(=O)O)cc3)C(=O)c3ccccc32)c(C)c1 | 4.97 µM
O=S(=O)(c1ccc2c(c1)C(=NO)c1cc(S(=O)(=O)N3CCCCC3)ccc1-2)N1CCCCC1 | 2.9 µM
CCOC(=O)c1c(C)[nH]c2c1-c1ccccc1C(=O)C2=O | 1.07 µM
C(=N\NC1=Nc2cccc3cccc1c23)/c1ccccn1 | 0.95 µM
O=C(CCl)Nc1cc(SCC(O)CO)cc([N+](=O)[O-])c1 (configuration not stated) | 13.7 µM
NC(=O)c1cc2ccncc2c2ccccc12 | 0.805 µM
CCOc1c2ccc(C(=O)NCc3ccccc3OC)cc2nn1CC | > 19.5 µM (inactive)
Cc1cccc(C(=O)NC(=S)N2CCN(c3ccc([N+](=O)[O-])cc3)CC2)c1 | > 19.5 µM (inactive)
Cc1ccc(OCC(=O)c2cc(C)n(-c3ccccc3)c2C)c([N+](=O)[O-])n1 | 8.65 µM
